Data: patent US7932253B2, “Immunomodulating oxopyrrazolocinnolines as CD80 inhibitors” (MediGene AG, priority 2004, dated 2011)

Legend:
[1] = target: T1, Biotinylated human CD80 (hCD80-BT) (Homo sapiens, UniProt P33681); experiment: BIAcore biomolecular interaction assay; type: binding; details: hCD80-BT immobilised on streptavidin-coated sensor chip; compound 1000 nM-0.05 nM
T1 construct: biotin (biotinylation)
T1 sequence (P33681 35-242 limits assumed): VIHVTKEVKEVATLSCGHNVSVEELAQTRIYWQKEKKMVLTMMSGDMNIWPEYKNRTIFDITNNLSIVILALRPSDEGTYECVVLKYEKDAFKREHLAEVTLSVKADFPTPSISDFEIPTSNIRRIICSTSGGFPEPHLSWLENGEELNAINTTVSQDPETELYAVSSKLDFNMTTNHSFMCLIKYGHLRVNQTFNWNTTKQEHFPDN
From the text: Biotinylated human CD80 (hCD80-BT) is a recombinant soluble form of a membrane bound receptor molecule (CD80) which binds to CD28 to initiate T cell activation. The interaction between CD80 and CD28 has been extensively investigated (Collins et al, 2002). Biotinlyated human HLA-A2-tax is the recombinant soluble form of a membrane bound receptor molecule used as a control protein, and is not expected to interact with the compound.
The BIAcore S51™ system was used for screening the compounds of Examples 1-4 above. A series S sensor chip CM5 was docked onto the BIAcore S51™. Streptavidin was coupled to the carboxymethyl surface using standard amine coupling. The chip surface was activated with 0.2M EDC/0.05M NHS, followed by binding of streptavidin (0.25 mg/ml in 10 mM sodium acetate pH 5.0) and saturation of unoccupied sites with […].
The BIAcore S51 sensor chip has two separate sensor spots for immobilisation of proteins. hCD80-BT was immobilised on the streptavidin-coated surface of one sensor spot until a response of approximately 3000 RU was observed. A protein to control for non-specific binding of the compound was immobilised on a second sensor spot. […]
BIAcore S51™ was run at a flow rate of 30 μl/min using running buffer. […] Data were recorded automatically and were analysed using BIAcore S51 Evaluation software.

CD80-CD28 interaction = target: T2, CD80-CD28 interaction (Homo sapiens, UniProt P33681); experiment: Homogeneous time resolved fluorescence (TR-Fret) assay, cell free; type: biochemical; details: inhibition of the CD80-CD28 interaction; 4 hours at room temperature
T2 construct: mouse Fab fragment (fusion partner)
T2 sequence (P33681 35-242 limits assumed): T1 sequence (P33681 35-242 limits assumed)
Method: The compound was tested in a cell free homogenous time resolved fluorescence (HT-Fret) assay to determine their activity as an inhibitor of the CD80-CD28 interaction.
In the assay, europium and allophycocyanin (APC) are associated with CD28 and CD80 indirectly (through antibody linkers) to form a complex, which brings the europium and APC into close proximity to generate a signal. The complex comprises the following six proteins: fluorescent label 1, linker antibody 1, CD28 fusion protein, CD80 fusion protein, linker antibody 2, and fluorescent label 2. The table below describes these reagents in greater detail.
On formation of the complex, europium and APC are brought into proximity and a signal is generated.
Non-specific interaction was measured by substituting a mouse Fab fragment (C215) for the CD80 mouse Fab fragment fusion protein (1.9 μg/ml). The assay was carried out in black 384 well plates in a final volume of 30 μl. Assay buffer: 50 mM Tris-HCl, 150 mM NaCl pH7.8, containing 0.1% BSA (w/v) added just prior to use.
Compounds were added to the above reagents in a concentration series ranging between 100 μM-1.7 nM. The reaction was incubated for 4 hours at room temperature. Dual measurements were made using a Wallac Victor 1420 Multilabel Counter. […] Counts were automatically corrected for fluorescence crossover, quenching and background.

O=C(N[C@H]1CN2CCC1CC2)c1ccc(-n2[nH]c3c(nnc4c(F)ccc(F)c43)c2=O)cc1 [The compound, (R)—N-(1-Aza-bicyclo[2.2.2]oct-3-yl)-4-(6,9-difluoro-3-oxo-1,3-dihydro-pyrazolo[4,3-c]cinnolin-2-yl)-benzamide]
Kd [1]: 0.35 nM | EC50 (CD80-CD28 interaction): 0.82 nM
